Measured values from paper PMC10940605, “Design, synthesis and in vitro anticancer activity of some new lomefloxacin derivatives” (Scientific Reports, 2024).

Assays:
Assay in all cases: NCI-60 SRB screen
Assay type in all cases: cell-based
MCF7 = settings: Homo sapiens; MCF7, 10^–5 Molar; read-out: Percent growth inhibition
Procedure, shortened: (§1)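 Compounds were evaluated at one concentration (10^−5 M) against the cell lines over 48 h. Cell mass was measured by sulforhodamine B staining after trichloroacetic acid fixation, with growth expressed relative to time-zero and control cultures.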

NCI-H23 = settings: Homo sapiens; NCI-H23, 10^–5 Molar; read-out: Percent growth inhibition
Procedure, shortened: as §1

K-562 = settings: Homo sapiens, K562; K-562, 10^–5 Molar; read-out: Percent growth inhibition
Procedure, shortened: as §1

ACHN = settings: Homo sapiens, 10^–5 Molar, read-out: Percent growth inhibition
Procedure, shortened: as §1

HCC-2998 = settings: Homo sapiens; HCC-2998, 10^–5 Molar; read-out: Percent growth inhibition
Procedure, shortened: as §1

LOX IMVI = settings: Homo sapiens, 10^–5 Molar, read-out: Percent growth inhibition
Procedure, shortened: as §1

CAKI-1 = settings: Homo sapiens; CAKI-1, 10^–5 Molar; read-out: Percent growth inhibition
Procedure, shortened: as §1

NCI/ADR-RES = settings: Homo sapiens, 10^–5 Molar, read-out: Percent growth inhibition
Procedure, shortened: as §1

OVCAR-8 = settings: Homo sapiens; OVCAR-8, 10^–5 Molar; read-out: Percent growth inhibition
Procedure, shortened: as §1

UACC-62 = settings: Homo sapiens; UACC-62, 10^–5 Molar; read-out: Percent growth inhibition
Procedure, shortened: as §1

OVCAR-5 = settings: Homo sapiens; OVCAR-5, 10^–5 Molar; read-out: Percent growth inhibition
Procedure, shortened: as §1

PC-3 = settings: Homo sapiens; PC-3, 10^–5 Molar; read-out: Percent growth inhibition
Procedure, shortened: as §1

MDA-MB-231/ATCC = settings: Homo sapiens, 10^–5 Molar, read-out: Percent growth inhibition
Procedure, shortened: as §1

SNB-19 = settings: Homo sapiens; SNB-19, 10^–5 Molar; read-out: Percent growth inhibition
Procedure, shortened: as §1

SK-MEL-28 = settings: Homo sapiens; SK-MEL-28, 10^–5 Molar; read-out: Percent growth inhibition
Procedure, shortened: as §1

UO-31 = settings: Homo sapiens; UO-31, 10^–5 Molar; read-out: Percent growth inhibition
Procedure, shortened: as §1

OVCAR-4 = settings: Homo sapiens; OVCAR-4, 10^–5 Molar; read-out: Percent growth inhibition
Procedure, shortened: as §1

HS 578T = settings: Homo sapiens, 10^–5 Molar, read-out: Percent growth inhibition
Procedure, shortened: as §1

A549/ATCC = settings: Homo sapiens, 10^–5 Molar, read-out: Percent growth inhibition
Procedure, shortened: as §1

U251 = settings: Homo sapiens, U-251; U251, 10^–5 Molar; read-out: Percent growth inhibition
Procedure, shortened: as §1

MALME-3M = settings: Homo sapiens, 10^–5 Molar, read-out: Percent growth inhibition
Procedure, shortened: as §1

RXF 393 = settings: Homo sapiens, 48 h; RXF 393, 10^–5 Molar; read-out: Percent growth inhibition
Procedure, shortened: as §1

melanoma SK-MEL-5 = settings: Homo sapiens; SK-MEL-5, 10^–5 Molar; read-out: Percent growth inhibition
Procedure, shortened: as §1

HCT-116 = settings: Homo sapiens; HCT-116, 10^–5 Molar; read-out: Percent growth inhibition
Procedure, shortened: as §1

CCRF-CEM = settings: Homo sapiens, 10^–5 Molar, read-out: Percent growth inhibition
Procedure, shortened: as §1

Row | Compound | inhibition at 10 µM (MCF7) [%] | inhibition at 10 µM (NCI-H23) [%] | inhibition at 10 µM (K-562) [%] | inhibition at 10 µM (ACHN) [%] | inhibition at 10 µM (HCC-2998) [%] | inhibition at 10 µM (LOX IMVI) [%] | inhibition at 10 µM (CAKI-1) [%] | inhibition at 10 µM (NCI/ADR-RES) [%] | inhibition at 10 µM (OVCAR-8) [%] | inhibition at 10 µM (UACC-62) [%] | inhibition at 10 µM (OVCAR-5) [%] | inhibition at 10 µM (PC-3) [%] | inhibition at 10 µM (MDA-MB-231/ATCC) [%] | inhibition at 10 µM (SNB-19) [%] | inhibition at 10 µM (SK-MEL-28) [%] | inhibition at 10 µM (UO-31) [%] | inhibition at 10 µM (OVCAR-4) [%] | inhibition at 10 µM (HS 578T) [%] | inhibition at 10 µM (A549/ATCC) [%] | inhibition at 10 µM (U251) [%] | also measured
1 | CCn1cc(C(=O)NN=Cc2cccnc2)c(=O)c2cc(F)c(N3CCNC(C)C3)c(F)c21 (centres unmarked) [Compound 3d, 1-Ethyl-6,8-difluoro-7-(3-methylpiperazin-1-yl)-4-oxo-N'-(pyridin-3-ylmethylene)-1,4-dihydroquinoline-3-carbohydrazide] | 80.9 | 50.9 | 71.9 | 13.6 | 50.4 | 82 | 67.8 | 2.29 | 70 | 48.6 | 31.3 | 49.1 | 64.2 | 69.5 | 23.1 | 12.5 | 51.9 | 57.8 | 14.4 | 74.6 | inhibition at 10 µM (MALME-3M): 40%; inhibition at 10 µM (RXF 393): 40.7%; inhibition at 10 µM (melanoma SK-MEL-5): 34.8%; inhibition at 10 µM (HCT-116): 66.5%; inhibition at 10 µM (CCRF-CEM): 54.3%
2 | CCn1cc(C(=O)NN=Cc2cccc(F)c2)c(=O)c2cc(F)c(N3CCNC(C)C3)c(F)c21 (centres unmarked) [Compound 3b, 1-Ethyl-6,8-difluoro-N′-(3-fluorobenzylidene)-7-(3-methylpiperazin-1-yl)-4-oxo-1,4-dihydroquinoline-3-carbohydrazide] | 184 | 23.8 | 152 | 25.6 | 181 | 191 | 33.3 | 21.6 | 105 | 35.2 | 9.76 | 30.4 | 150 | 159 | 164 | 79.4 | 76.2 | 18.7 | 167 | 174 | inhibition at 10 µM (MALME-3M): 167%; inhibition at 10 µM (RXF 393): 122%; inhibition at 10 µM (melanoma SK-MEL-5): 47.4%; inhibition at 10 µM (HCT-116): 28.8%; inhibition at 10 µM (CCRF-CEM): 147%
